# Where a name gives a salt, the structure may show the parent alone.
# Tests used:
# activated human C1 = target: T1, activated human C1 (Homo sapiens, UniProt P09871); test: Test Code 026 (C1 inhibitor): protection of fluid phase human C2 from activated human C1 in the presence of C4, serial dilution assay; type: biochemical; settings: activity in wells, twofold serial dilutions; higher well number indicates higher activity
# T1 construct: fluid-phase C2 destruction in presence of C4
# Method: (§1) An active inhibitor protects C2 from C1 and C4; (ii) Test Code 035 (C3-C9 inhibitor)--This test determines the ability of the late components of human complement (C3-C9) to lyse EAC 142 in the presence of appropriate dilutions of the test compound. An active inhibitor protects EAC 142 from lysis by human C3-C9; and (iii) Cap 50 Test--Here, appropriate amounts of the test compound are added to a pool of guinea pig serum in vitro, after which the undiluted serum capillary tube assay of U.S. Pat. No. 3,876,376 is run. The concentration of compound inhibiting 50% is reported.
# (§2) **Activity in wells, a serial dilution assay; higher well number indicate
# (§3) higher activitiy. The serial dilutions are twofold.
# [1] = tested on: late components of human complement (C3-C9); test: Test Code 035 (C3-C9 inhibitor): protection of EAC 142 from lysis by late components of human complement; type: biochemical; settings: activity in wells, twofold serial dilutions; higher well number indicates higher activity
# Method: as §1, §2, §3
# T1 sequence (P09871 16-688): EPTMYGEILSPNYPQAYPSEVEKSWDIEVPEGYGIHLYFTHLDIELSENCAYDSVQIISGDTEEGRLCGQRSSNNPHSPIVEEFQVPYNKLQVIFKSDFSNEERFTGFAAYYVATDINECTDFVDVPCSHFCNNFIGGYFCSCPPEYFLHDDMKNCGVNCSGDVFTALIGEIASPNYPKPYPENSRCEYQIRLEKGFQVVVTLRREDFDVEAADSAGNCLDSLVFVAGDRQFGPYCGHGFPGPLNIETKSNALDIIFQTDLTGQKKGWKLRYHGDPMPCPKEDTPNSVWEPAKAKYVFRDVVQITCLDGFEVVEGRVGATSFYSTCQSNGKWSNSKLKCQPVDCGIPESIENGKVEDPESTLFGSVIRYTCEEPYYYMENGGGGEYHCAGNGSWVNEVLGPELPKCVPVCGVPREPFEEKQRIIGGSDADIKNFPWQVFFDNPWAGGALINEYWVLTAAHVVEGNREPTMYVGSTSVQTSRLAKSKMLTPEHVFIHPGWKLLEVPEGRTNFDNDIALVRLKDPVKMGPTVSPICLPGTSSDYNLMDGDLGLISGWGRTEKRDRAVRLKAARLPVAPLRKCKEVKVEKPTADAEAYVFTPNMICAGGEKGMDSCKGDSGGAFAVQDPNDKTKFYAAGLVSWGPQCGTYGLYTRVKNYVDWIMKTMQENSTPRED
# T1 sequence (P00736 18-705 partner): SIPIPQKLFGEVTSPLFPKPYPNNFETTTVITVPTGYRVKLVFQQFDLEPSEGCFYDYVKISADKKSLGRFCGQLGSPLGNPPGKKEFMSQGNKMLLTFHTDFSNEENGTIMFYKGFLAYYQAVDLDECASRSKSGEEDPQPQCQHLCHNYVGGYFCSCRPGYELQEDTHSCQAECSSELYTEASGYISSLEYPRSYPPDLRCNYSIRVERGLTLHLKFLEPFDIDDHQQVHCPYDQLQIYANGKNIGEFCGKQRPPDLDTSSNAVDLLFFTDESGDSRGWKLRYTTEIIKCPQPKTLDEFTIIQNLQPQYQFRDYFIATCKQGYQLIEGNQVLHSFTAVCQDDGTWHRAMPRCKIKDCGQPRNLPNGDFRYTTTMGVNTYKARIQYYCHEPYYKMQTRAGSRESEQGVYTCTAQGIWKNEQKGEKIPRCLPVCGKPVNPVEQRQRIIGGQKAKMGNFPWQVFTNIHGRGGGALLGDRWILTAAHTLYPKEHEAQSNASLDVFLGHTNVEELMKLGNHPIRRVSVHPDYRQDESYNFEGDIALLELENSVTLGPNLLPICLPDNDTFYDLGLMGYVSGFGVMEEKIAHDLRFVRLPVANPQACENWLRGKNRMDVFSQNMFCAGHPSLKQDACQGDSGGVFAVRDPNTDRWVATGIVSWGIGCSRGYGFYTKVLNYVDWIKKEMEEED
# T1 sequence (P02745 23-245 partner): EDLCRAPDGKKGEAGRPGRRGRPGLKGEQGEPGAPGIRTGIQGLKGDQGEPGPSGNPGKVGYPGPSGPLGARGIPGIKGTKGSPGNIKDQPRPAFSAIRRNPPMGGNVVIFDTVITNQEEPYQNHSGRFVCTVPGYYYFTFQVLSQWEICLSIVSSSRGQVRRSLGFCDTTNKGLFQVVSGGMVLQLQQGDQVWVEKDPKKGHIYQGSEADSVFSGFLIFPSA
# T1 sequence (P02746 28-253 partner): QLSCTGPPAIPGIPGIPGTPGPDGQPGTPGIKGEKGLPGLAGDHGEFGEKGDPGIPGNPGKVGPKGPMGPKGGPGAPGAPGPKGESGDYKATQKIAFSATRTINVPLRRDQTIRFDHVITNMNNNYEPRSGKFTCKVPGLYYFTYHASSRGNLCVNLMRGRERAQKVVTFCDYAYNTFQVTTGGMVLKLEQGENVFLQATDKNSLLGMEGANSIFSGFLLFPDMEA
# T1 sequence (P02747 29-245 partner): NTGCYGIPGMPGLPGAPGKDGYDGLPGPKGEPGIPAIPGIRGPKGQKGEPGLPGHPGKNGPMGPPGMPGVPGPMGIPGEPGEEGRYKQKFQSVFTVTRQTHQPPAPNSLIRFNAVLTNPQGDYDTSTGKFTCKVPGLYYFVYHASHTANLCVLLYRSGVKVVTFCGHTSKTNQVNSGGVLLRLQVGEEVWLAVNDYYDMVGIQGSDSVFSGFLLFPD
smiles,measurement,setting,value
"O=S(=O)(O)OC[C@H]1O[C@@H](Sc2ccc(Oc3ccc(S[C@@H]4O[C@H](COS(=O)(=O)O)[C@@H](OS(=O)(=O)O)[C@H](OS(=O)(=O)O)[C@H]4OS(=O)(=O)O)cc3)cc2)[C@H](OS(=O)(=O)O)[C@@H](OS(=O)(=O)O)[C@@H]1OS(=O)(=O)O [Oxydi-p-phenylene bis-[1-thio-β-D-glucopyranoside], octakis(H-sulfate), octasodium salt]",Cl 026 Wells,activated human C1,4 Wells
"O=C(O)[C@H]1O[C@@H](Sc2cccc(S[C@@H]3O[C@H](C(=O)O)[C@@H](OS(=O)(=O)O)[C@H](OS(=O)(=O)O)[C@H]3OS(=O)(=O)O)c2)[C@H](OS(=O)(=O)O)[C@@H](OS(=O)(=O)O)[C@@H]1OS(=O)(=O)O [1,3-Bis[β-D-glucopyranosiduronic acid-1-thio]-phenylene, hexakis(H-sulfate), octasodium salt]",Cl 026 Wells,activated human C1,5 Wells
"CC(=O)N[C@@H]1[C@@H](OS(=O)(=O)O)[C@H](OS(=O)(=O)O)[C@@H](COS(=O)(=O)O)O[C@H]1Sc1cccc(S[C@@H]2O[C@H](COS(=O)(=O)O)[C@@H](OS(=O)(=O)O)[C@H](OS(=O)(=O)O)[C@H]2NC(C)=O)c1 [1,3-Bis-[β-D-(2-acetylamino)-glucopyranosyl-1-thio]-phenylene, hexakis(H-sulfate), hexasodium salt]",Cl 026 Wells,activated human C1,5 Wells
same,C-Late 035 Wells,[1],1 Wells

# — patent publication US4459293A, “Method of modulating the complement system by administering bis-[β-D-glucopyranosyl-1-thio (or sulfinyl or sulfonyl)]-aryline sulfate derivatives and the cation salts thereof” (American Cyanamid Company, priority 1983, dated 1984)
